In article PMC9181188 (International Journal of Molecular Sciences, 2022):
Values after ≈ are worked out from the molar mass of the structure shown. Like-named read-outs stand apart in the source and are kept apart here.

Legend:
[1] = test system: S. epidermidis ATCC 35984; assay: MIC, twofold microdilution, standard strain; type: cell-based; settings: Staphylococcus epidermidis, read-out: MIC S. epidermidis ATCC 35984
[2] = test system: S. aureus ATCC 25923; assay: MIC, twofold microdilution, standard strain; type: cell-based; settings: Staphylococcus aureus, read-out: MIC S. aureus ATCC 25923
[3] = test system: P. aeruginosa ATCC 27853; assay: MIC, twofold microdilution, standard strain; type: cell-based; settings: Pseudomonas aeruginosa, read-out: MIC P. aeruginosa ATCC 27853
[4] = test system: standard staphylococci (S. aureus, S. epidermidis); assay: MIC, standard Gram-positive strains as a group; type: cell-based; settings: Staphylococcus aureus; range over standard Gram-positive strains; read-out: MIC against standard staphylococci
[5] = test system: S. aureus ATCC 29213; assay: MIC, twofold microdilution, standard strain; type: cell-based; settings: Staphylococcus aureus, read-out: MIC S. aureus ATCC 29213
[6] = test system: S. epidermidis KR 4313 834/19; assay: MIC, clinical S. epidermidis strain; type: cell-based; settings: Staphylococcus epidermidis, KR4313834/19, quinolone-susceptible, 18 h of treatment
[7] = test system: S. epidermidis KR 4358/2 840/19; assay: MIC, clinical S. epidermidis strain; type: cell-based; settings: Staphylococcus epidermidis, read-out: MIC KR 4358/2 840/19
[8] = test system: E. coli ATCC 25922; assay: MIC, twofold microdilution, standard strain; type: cell-based, Escherichia coli; settings: Escherichia coli, read-out: MIC E. coli ATCC 25922
[9] = test system: SW620 cells; assay: MTT assay, SW620; type: cell-based, human; settings: for IC50: Homo sapiens, SW-620, 72 h, human metastatic colon cancer, 72 h, MTT, mean ± SD; for SI SW620: SI = IC50 for normal cell line (HaCaT)/IC50 cancer cell line
[10] = test system: S. epidermidis ATCC 12228; assay: MIC, twofold microdilution, standard strain; type: cell-based; settings: Staphylococcus epidermidis, read-out: MIC S. epidermidis ATCC 12228
[11] = test system: S. epidermidis T 5501 851/19; assay: MIC, clinical S. epidermidis strain; type: cell-based; settings: Staphylococcus epidermidis, T5501851/19, read-out: MIC T 5501 851/19, quinolone-susceptible, 18 h of treatment
[12] = test system: S. epidermidis T 5253 845/19; assay: MIC, clinical S. epidermidis strain; type: cell-based; settings: Staphylococcus epidermidis, T5253845/19, quinolone-resistant, 18 h of treatment
[13] = test system: M. tuberculosis Spec. 192 (Sensitive to Tuberculostatics); assay: MABA (microplate Alamar blue assay) MIC; type: cell-based; settings: Mycobacterium tuberculosis, 336 h, read-out: MIC M. tuberculosis Spec. 192 (Sensitive to Tuberculostatics)
[14] = test system: SW480 cells; assay: MTT assay, SW480; type: cell-based, human; settings: for IC50: human primary colon cancer, 72 h, MTT, mean ± SD; for SI SW480: SI = IC50 for normal cell line (HaCaT)/IC50 cancer cell line
[15] = test system: HaCaT cells; assay: MTT assay, HaCaT normal cells; type: cell-based; settings: human immortal keratinocyte cell line, 72 h, mean ± SD
[16] = test system: S. aureus ATCC 6538; assay: MIC, twofold microdilution, standard strain; type: cell-based; settings: Staphylococcus aureus, read-out: MIC S. aureus ATCC 6538
[17] = test system: SW480, SW620, and PC3 cancer cell lines; assay: MTT assay, cancer cell lines as a group; type: cell-based, human; settings: 72 h, all three cancer cell lines (SW480, SW620, PC3), read-out: IC50 against all tested cancer cell lines
[18] = test system: S. epidermidis T 5399 848/19; assay: MIC, clinical S. epidermidis strain; type: cell-based; settings: Staphylococcus epidermidis, T5399848/19, quinolone-susceptible, 18 h of treatment
[19] = test system: M. tuberculosis H37Rv; assay: MABA (microplate Alamar blue assay) MIC; type: cell-based; settings: Mycobacterium tuberculosis, 336 h, read-out: MIC M. tuberculosis H37Rv
[20] = test system: S. epidermidis KR 4243 829/19; assay: MIC, clinical S. epidermidis strain; type: cell-based; settings: Staphylococcus epidermidis, KR4243829/19, quinolone-susceptible, 18 h of treatment
[21] = test system: PC3 cells; assay: MTT assay, PC3; type: cell-based, human; settings: for IC50: human metastatic prostate cancer, 72 h, MTT, mean ± SD; for SI PC3: SI = IC50 for normal cell line (HaCaT)/IC50 cancer cell line
[22] = test system: S. epidermidis KR 4047 825/19; assay: MIC, clinical S. epidermidis strain; type: cell-based; settings: Staphylococcus epidermidis, KR4047825/19, quinolone-resistant, 18 h of treatment
[23] = test system: S. aureus NCTC 4163; assay: MIC, twofold microdilution, standard strain; type: cell-based; settings: Staphylococcus aureus, read-out: MIC S. aureus NCTC 4163
[24] = test system: M. tuberculosis strains; assay: MABA MIC, mycobacterial strains as a group; type: cell-based; settings: Mycobacterium tuberculosis; summary over strains; read-out: MIC antimycobacterial (strain not specified)

Row | Structure (SMILES) | MIC [4] [µg/mL] | MIC [6] [µg/mL] | IC50 [9] [µM] | SI SW620 [9] | MIC [11] [µg/mL] | MIC [12] [µg/mL] | IC50 ([14]; Homo sapiens, SW480, 72 h) [µM] | SI SW480 [14] | IC50 [15] [µM] | MIC [18] [µg/mL] | MIC [20] [µg/mL] | IC50 ([21]; Homo sapiens, PC-3, 72 h) [µM] | SI PC3 [21] | MIC [22] [µg/mL] | also measured
1 | CCCCCCCCCCCCCCCC(=O)N1CCC[C@H]2CN(c3c(F)cc4c(=O)c(C(=O)O)cn(C5CC5)c4c3OC)C[C@H]21 [Compound 9m, 1-Cyclopropyl-6-fluoro-7-(1-hexadecanoyl-octahydro-pyrrolo[3,4-b]pyridin-6-yl)-8-methox-4-oxo-1,4-dihydro-quinoline-3-carboxylic acid] | > 32 | 512 (≈ 800 µM) | 10.4 ± 1.4 | 9.3 | 512 (≈ 800 µM) | 512 (≈ 800 µM) | 9.4 ± 2.3 | 10.3 | 96.7 ± 2.6 | 512 (≈ 800 µM) | 512 (≈ 800 µM) | 8.1 ± 1.5 | 11.9 | 512 (≈ 800 µM) | MIC ([1]; ATCC35984, 18 h): > 512 µg/mL; MIC ([2]; ATCC25923, 18 h): > 512 µg/mL; MIC ([3]; ATCC27853, 18 h): > 512 µg/mL; MIC ([5]; ATCC29213, 18 h): > 512 µg/mL; MIC ([7]; KR4358/2840/19, 18 h): > 512 µg/mL; MIC ([8]; ATCC25922, 18 h): > 512 µg/mL; MIC ([10]; ATCC12228, 18 h): > 512 µg/mL; MIC [13]: > 512 µg/mL; MIC ([16]; ATCC6538, 18 h): > 512 µg/mL; IC50 ([17]; Homo sapiens): 5 to 10 µM; IC50 [17]: 5.6 to 10.4 µM; MIC [19]: > 512 µg/mL; MIC ([23]; NCTC4163, 18 h): > 512 µg/mL
2 | CCCCC/C=C\C/C=C\CCCCCCCC(=O)N1CCCC2CN(c3c(F)cc4c(=O)c(C(=O)O)cn(C5CC5)c4c3OC)CC21 (stereo not shown) [Compound 11m, 1-Cyclopropyl-6-fluoro-8-methoxy-7-{1-(9Z,12Z)-octadeca-9,12-dienoyl-octahydropyrrolo-[3,4-b]pyridin-6-yl)-4-oxo-1,4-dihydro-quinoline-3-carboxylic acid] | > 32 | 64 (≈ 96.4 µM) | 7.3 ± 0.9 | 12.5 | 512 (≈ 771 µM) | 512 (≈ 771 µM) | < 5 | 19.0 | 91.4 ± 5.3 | 512 (≈ 771 µM) | 256 (≈ 386 µM) | < 5 | 25.4 | 512 (≈ 771 µM) | MIC ([1]; ATCC35984, 18 h of treatment): > 512 µg/mL; MIC ([2]; ATCC25923, 18 h of treatment): > 512 µg/mL; MIC ([3]; ATCC27853, 18 h of treatment): > 512 µg/mL; MIC ([5]; ATCC29213, 18 h of treatment): > 512 µg/mL; MIC ([7]; KR4358/2840/19, clinical S. epidermidis, quinolone-susceptible, 18 h of treatment): 128 µg/mL (≈ 193 µM); MIC ([8]; ATCC25922, 18 h of treatment): > 512 µg/mL; MIC ([10]; ATCC12228, 18 h of treatment): > 512 µg/mL; MIC ([13]; 2 weeks of treatment): 128 µg/mL (≈ 193 µM); IC50 [14]: 4.8 ± 1.3 µM; MIC ([16]; ATCC6538, 18 h of treatment): > 512 µg/mL; MIC [24]: ≥ 128 µg/mL; MIC ([19]; 2 weeks of treatment): 512 µg/mL (≈ 771 µM); IC50 [21]: 3.6 ± 1.1 µM; MIC ([23]; NCTC4163, 18 h of treatment): > 512 µg/mL
